In US6689773B2, “Uracil substituted phenyl sulfamoyl carboxamides” (BASF Aktiengesellschaft, priority 2000, dated 2004):

Legend:
Assay type in all cases: in vivo
[1] = tested on: ABUTH, Velvetleaf, Abutilon theophrasti, Medic.; assay: Postemergence herbicidal evaluation (Example 147); settings: rating scale 0-9, two to three weeks after treatment
Description: (§1) Seedling plants were grown in jiffy flats for about two weeks. The test compounds were dispersed in 80/20 acetone/water mixtures containing 1.0% SUN-IT®II, a methylated seed oil, in sufficient quantities to provide the equivalent of about 0.016 to 0.032 kg per hectare of active compound when applied to the plants through a spray nozzle operating at 40 psi for a predetermined time. After spraying, the plants were placed on greenhouse benches and were cared for in accordance with conventional greenhouse procedures. Approximately two to three weeks after treatment, the seedling plants were examined and rated according to the rating scale (0-9) set forth below. Where more than one test is involved for a given compound, the data are averaged. [table] The scale is based upon a visual observation of plant stand, vigor, malformation, size, chlorosis and overall plant appearance as compared with a control. Plant species employed in these evaluations are reported by header abbreviation, common name and scientific name. [table]

[2] = tested on: ALOMY, Blackgrass, Alopecurus myosuroides; assay: Postemergence herbicidal evaluation (Example 147); settings: rating scale 0-9, two to three weeks after treatment
Description: as §1

[3] = tested on: AMBEL, Ragweed, Common, Ambrosia artemiisifolia, L.; assay: Postemergence herbicidal evaluation (Example 147); settings: rating scale 0-9, two to three weeks after treatment
Description: as §1

[4] = tested on: CHEAL, Lambsquarters, Chenopodium album, L. Common; assay: Postemergence herbicidal evaluation (Example 147); settings: rating scale 0-9, two to three weeks after treatment
Description: as §1

[5] = tested on: DIGSA, Crabgrass, (Hairy) L, Digitaria sanguinalis, (L)Scop; assay: Postemergence herbicidal evaluation (Example 147); settings: rating scale 0-9, two to three weeks after treatment
Description: as §1

[6] = tested on: ECHCG, Barnyardgrass, Echinochloa crusgalli, (L.)Beau; assay: Postemergence herbicidal evaluation (Example 147); settings: rating scale 0-9, two to three weeks after treatment
Description: as §1

[7] = tested on: GLXMA, Soybean, Glycine max, (L.) Merr.; assay: Postemergence herbicidal evaluation (Example 147); settings: rating scale 0-9, two to three weeks after treatment
Description: as §1

[8] = tested on: IPOHE, Morningglory, Ivyleaf, Ipomoea hederacea, (L)Jacq.; assay: Postemergence herbicidal evaluation (Example 147); settings: rating scale 0-9, two to three weeks after treatment
Description: as §1

[9] = tested on: SETVI, Green foxtail, Setaria viridis, (L.)Beau; assay: Postemergence herbicidal evaluation (Example 147); settings: rating scale 0-9, two to three weeks after treatment
Description: as §1

[10] = tested on: TRZAW, Winter wheat, Tritium Aestivum, L. (Winter); assay: Postemergence herbicidal evaluation (Example 147); settings: rating scale 0-9, two to three weeks after treatment
Description: as §1

[11] = tested on: XANST, Cocklebur, Xanthium strumariam; assay: Postemergence herbicidal evaluation (Example 147); settings: rating scale 0-9, two to three weeks after treatment
Description: as §1

[12] = tested on: ZEAMX, Field corn, Zea mays L.; assay: Postemergence herbicidal evaluation (Example 147); settings: rating scale 0-9, two to three weeks after treatment
Description: as §1

[13] = tested on: ABUTH, Velvetleaf, Abutilon theophrasti, Medic.; assay: Preemergence herbicidal evaluation (Example 148); settings: rating scale 0-9, two to four weeks after treatment
Description: (§2) The scale is based upon a visual observation of plant stand, vigor, malformation, size, chlorosis and overall plant appearance as compared with a control.
(§3) The herbicidal activity of the compounds of the present invention was evaluated by the following tests wherein the seeds of a variety of monocotyledonous and dicotyledonous plants were separately mixed with potting soil and planted on top of approximately one inch of soil in separate pint cups. After planting, the cups were sprayed with the selected aqueous acetone solution containing test compound in sufficient quantity to provide the equivalent of about 0.125 to 0.250 kg per hectare of test compound per cup. The treated cups were then placed on greenhouse benches, watered and cared for in accordance with conventional greenhouse procedures. From two to four weeks after treatment, the tests were terminated and each cup was examined and rated according to the rating system provided in Example 94. When more than one test was performed for a given compound, the data were averaged.

[14] = tested on: ALOMY, Blackgrass, Alopecurus myosuroides; assay: Preemergence herbicidal evaluation (Example 148); settings: rating scale 0-9, two to four weeks after treatment
Description: as §2, §3

[15] = tested on: AMBEL, Ragweed, Common, Ambrosia artemiisifolia, L.; assay: Preemergence herbicidal evaluation (Example 148); settings: rating scale 0-9, two to four weeks after treatment
Description: as §2, §3

[16] = tested on: CHEAL, Lambsquarters, Chenopodium album, L. Common; assay: Preemergence herbicidal evaluation (Example 148); settings: rating scale 0-9, two to four weeks after treatment
Description: as §2, §3

[17] = tested on: DIGSA, Crabgrass, (Hairy) L, Digitaria sanguinalis, (L)Scop; assay: Preemergence herbicidal evaluation (Example 148); settings: rating scale 0-9, two to four weeks after treatment
Description: as §2, §3

[18] = tested on: ECHCG, Barnyardgrass, Echinochloa crusgalli, (L.)Beau; assay: Preemergence herbicidal evaluation (Example 148); settings: rating scale 0-9, two to four weeks after treatment
Description: as §2, §3

[19] = tested on: IPOHE, Morningglory, Ivyleaf, Ipomoea hederacea, (L)Jacq.; assay: Preemergence herbicidal evaluation (Example 148); settings: rating scale 0-9, two to four weeks after treatment
Description: as §2, §3

[20] = tested on: SETVI, Green foxtail, Setaria viridis, (L.)Beau; assay: Preemergence herbicidal evaluation (Example 148); settings: rating scale 0-9, two to four weeks after treatment
Description: as §2, §3

[21] = tested on: TRZAW, Winter wheat, Tritium Aestivum, L. (Winter); assay: Preemergence herbicidal evaluation (Example 148); settings: rating scale 0-9, two to four weeks after treatment
Description: as §2, §3

[22] = tested on: ZEAMX, Field corn, Zea mays L.; assay: Preemergence herbicidal evaluation (Example 148); settings: rating scale 0-9, two to four weeks after treatment
Description: as §2, §3

CCC(C)NS(=O)(=O)NC(=O)c1cc(-n2c(=O)cc(C(F)(F)F)n(C)c2=O)c(F)cc1Cl (centres unmarked) [Example 64]
Postemergence herbicidal rating ABUTH ([1]; rate 0.016 kg/ha): 9.0
Postemergence herbicidal rating ABUTH ([1]; rate 0.032 kg/ha): 9.0
Postemergence herbicidal rating ALMOY ([2]; rate 0.016 kg/ha): 3.0
Postemergence herbicidal rating ALMOY ([2]; rate 0.032 kg/ha): 5.0
Postemergence herbicidal rating AMBEL ([3]; rate 0.016 kg/ha): 9.0
Postemergence herbicidal rating AMBEL ([3]; rate 0.032 kg/ha): 9.0
Postemergence herbicidal rating CHEAL ([4]; rate 0.016 kg/ha): 9.0
Postemergence herbicidal rating CHEAL ([4]; rate 0.032 kg/ha): 9.0
Postemergence herbicidal rating DIGSA ([5]; rate 0.016 kg/ha): 5.0
Postemergence herbicidal rating DIGSA ([5]; rate 0.032 kg/ha): 5.0
Postemergence herbicidal rating ECHCG ([6]; rate 0.016 kg/ha): 9.0
Postemergence herbicidal rating ECHCG ([6]; rate 0.032 kg/ha): 9.0
Postemergence herbicidal rating GLXMA ([7]; rate 0.016 kg/ha): 7.5
Postemergence herbicidal rating GLXMA ([7]; rate 0.032 kg/ha): 8.0
Postemergence herbicidal rating IPOHE ([8]; rate 0.016 kg/ha): 9.0
Postemergence herbicidal rating IPOHE ([8]; rate 0.032 kg/ha): 9.0
Postemergence herbicidal rating SETVI ([9]; rate 0.016 kg/ha): 8.0
Postemergence herbicidal rating SETVI ([9]; rate 0.032 kg/ha): 9.0
Postemergence herbicidal rating TRZAW ([10]; rate 0.016 kg/ha): 6.0
Postemergence herbicidal rating TRZAW ([10]; rate 0.032 kg/ha): 7.0
Postemergence herbicidal rating XANST ([11]; rate 0.016 kg/ha): 9.0
Postemergence herbicidal rating XANST ([11]; rate 0.032 kg/ha): 9.0
Postemergence herbicidal rating ZEAMX ([12]; rate 0.016 kg/ha): 7.5
Postemergence herbicidal rating ZEAMX ([12]; rate 0.032 kg/ha): 8.0
Preemergence herbicidal rating ABUTH ([13]; rate 0.125 kg/ha): 9.0
Preemergence herbicidal rating ABUTH ([13]; rate 0.25 kg/ha): 9.0
Preemergence herbicidal rating ALMOY ([14]; rate 0.125 kg/ha): 0.0
Preemergence herbicidal rating ALMOY ([14]; rate 0.25 kg/ha): 4.0
Preemergence herbicidal rating AMBEL ([15]; rate 0.125 kg/ha): 9.0
Preemergence herbicidal rating AMBEL ([15]; rate 0.25 kg/ha): 9.0
Preemergence herbicidal rating CHEAL ([16]; rate 0.125 kg/ha): 9.0
Preemergence herbicidal rating CHEAL ([16]; rate 0.25 kg/ha): 9.0
Preemergence herbicidal rating DIGSA ([17]; rate 0.125 kg/ha): 8.0
Preemergence herbicidal rating DIGSA ([17]; rate 0.25 kg/ha): 9.0
Preemergence herbicidal rating ECHCG ([18]; rate 0.125 kg/ha): 3.0
Preemergence herbicidal rating ECHCG ([18]; rate 0.25 kg/ha): 7.0
Preemergence herbicidal rating IPOHE ([19]; rate 0.125 kg/ha): 9.0
Preemergence herbicidal rating IPOHE ([19]; rate 0.25 kg/ha): 9.0
Preemergence herbicidal rating SETVI ([20]; rate 0.125 kg/ha): 8.0
Preemergence herbicidal rating SETVI ([20]; rate 0.25 kg/ha): 9.0
Preemergence herbicidal rating TRZAW ([21]; rate 0.125 kg/ha): 0.0
Preemergence herbicidal rating TRZAW ([21]; rate 0.25 kg/ha): 3.0
Preemergence herbicidal rating ZEAMX ([22]; rate 0.125 kg/ha): 0.0
Preemergence herbicidal rating ZEAMX ([22]; rate 0.25 kg/ha): 2.0
